Consider 55 molecules from patent US11608341B2, “Substituted tetrahydropyrazolo[3,4-d]pyrimidines and tetrahydropyrazolo[4,3-d]pyrimidines as C5A receptor modulators” (Idorsia Pharmaceuticals Ltd., priority 2018, dated 2023).

pIC50: −log10 of the molar value.

The term pIC50 denotes the IC50 on a negative log10 scale, so that one unit is a factor of ten.

This assay concerns the target T1, C5AR1 (Homo sapiens, UniProt P21730).
T1 construct: host or cells: CHO-K1
T1 sequence (P21730 1-350): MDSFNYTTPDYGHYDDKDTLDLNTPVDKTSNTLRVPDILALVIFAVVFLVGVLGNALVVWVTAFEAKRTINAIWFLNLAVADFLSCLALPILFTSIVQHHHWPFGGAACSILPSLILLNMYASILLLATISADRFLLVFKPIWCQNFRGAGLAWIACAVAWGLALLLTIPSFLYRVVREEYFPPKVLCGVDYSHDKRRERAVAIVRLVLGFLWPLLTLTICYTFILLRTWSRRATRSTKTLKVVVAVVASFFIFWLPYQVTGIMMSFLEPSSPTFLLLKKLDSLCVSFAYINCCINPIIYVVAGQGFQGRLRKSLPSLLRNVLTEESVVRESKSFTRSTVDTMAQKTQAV
In words: In vitro assay: antagonism of C5a-induced beta-arrestin recruitment (PathHunter) in CHO-K1 C5AR1 beta-arrestin cell line. The class given is cell-based. Conditions: antagonistic activity, 1-10 nM C5a agonist, geometric mean where several measurements, read-out: C5aR IC50. In outline: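 Antagonist or DMSO added first, then C5a (1-10 nM, added at 6-fold end concentration), 1.5 h at 37 °C. PathHunter detection reagent was added for 45 min at RT before plate reading. IC50s come from antagonist serial dilutions in nmol/l and are geometric means of several measurements.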
On the technique in general: Activated receptors often draw arrestin, which recruitment assays turn into a signal.
Take `COc1nccc(C)c1N1CCC(N2Cc3nn(C)nc3N(Cc3ncccc3C(F)(F)F)C2=O)CC1` [Example 146]: the pIC50 was 7.49.

In the case of `Cc1cccc(F)c1N1CCC(N2Cc3cn(C4CNC4)nc3N(Cc3ccccc3C(F)(F)F)C2=O)CC1` [Example 92], the pIC50 is 6.37.

Take `CC1c2cn(C3CC3)nc2N(Cc2ccccc2C(F)(F)F)C(=O)N1C1CCN(c2c(F)cccc2C(F)F)CC1` (single isomer, unassigned) [Example 312]: the pIC50 was 7.14.

On to `Cc1cccc(F)c1N1CCC(N2Cc3cn(CC(O)CO)nc3N(Cc3ccccc3C(F)(F)F)C2=O)CC1` (stereo not shown) [Example 40], for which the pIC50 is 7.57.

In the case of `COC[C@@H](O)Cn1cc2c(n1)N(Cc1ccccc1C(F)(F)F)C(=O)N(C1CCN(c3c(C)cccc3F)CC1)C2` [Example 46], the pIC50 was 7.68.

On to `Cn1cc2c(n1)N(Cc1ccccc1C1CC1)C(=O)N(C1CCN(c3c(F)cccc3Cl)CC1)C2` [Example 284], for which the pIC50 was 8.05.

Regarding `Cc1nnc(N2CC(n3cc4c(n3)N(Cc3ccccc3C(F)(F)F)C(=O)N(C3CCN(c5c(C)cccc5F)CC3)C4)C2)o1` [Example 142], the pIC50 was 7.49.

On to `Cn1cc2c(n1)CN(C1CCN(c3c(F)cccc3OC(F)(F)F)CC1)C(=O)N2Cc1ccccc1C(F)(F)F` [Example 270], for which the negative logarithm of the IC50 (pIC50) was 7.27.

For `COC(=O)N1CC[C@H]1Cn1cc2c(n1)N(Cc1ccccc1C(F)(F)F)C(=O)N(C1CCN(c3c(C)cccc3F)CC1)C2` [Example 123], the pIC50 is 7.72.

`Cc1cccc(F)c1N1CCC(N2Cc3nn(C)cc3N(C(C)c3ccccc3C(F)(F)F)C2=O)CC1` (single isomer, unassigned) [Example 261]: the negative-log IC50 (pIC50) was 6.24.

For `Cc1cccc(F)c1N1CCC(N2Cc3c(cnn3CC3CC3)N(Cc3ccccc3C(F)(F)F)C2=O)CC1` [Example 179], the pIC50 is 6.82.

Regarding `Cc1cccc(F)c1N1CCC(N2C(=O)N(Cc3ccccc3C3CC3)c3c[nH]nc3C2C)CC1` (single isomer, unassigned) [Example 275], the pIC50 is 7.70.

With `Cc1cccc(F)c1N1CCC(N2Cc3cn(CC(C)N)nc3N(Cc3ccccc3C(F)(F)F)C2=O)CC1` (stereo not shown) [Example 80], the pIC50 was 6.46.

`COc1nccc(C)c1N1CCC(N2Cc3nn(CC4(F)CC4)cc3N(Cc3ccccc3C(F)(F)F)C2=O)CC1` [Example 222]: the negative-log IC50 (pIC50) was 7.72.

In the case of `Cc1nc2c(o1)N(Cc1ccccc1C(F)(F)F)C(=O)N(C1CCN(c3c(C)cccc3F)CC1)C2` [Example 89], the pIC50 is 7.27.

`COC(=O)N1CC(n2cc3c(n2)N(Cc2ccccc2C(F)(F)F)C(=O)N(C2CCN(c4c(C)cccc4F)CC2)C3)C1` [Example 117]: the pIC50 was 7.48.

For the molecule `Cc1cccc(F)c1N1CCC(N2Cc3nn(C(C)(C)C)cc3N(Cc3ccccc3C(F)(F)F)C2=O)CC1` [Example 183], the pIC50 is 7.66.

Regarding `Cc1cccc(F)c1N1CCC(N2Cc3cn(CC4CC4(F)F)nc3N(Cc3ccccc3C(F)(F)F)C2=O)CC1` (single isomer, unassigned) [Example 189], the pIC50 was 8.00.

In the case of `CC1c2cn(C)nc2N(Cc2ccccc2C2CC2)C(=O)N1C1CCN(c2c(F)cccc2C2CC2)CC1` (single isomer, unassigned) [Example 326], the pIC50 was 6.45.

In the case of `CCOC(=O)N1CC[C@H]1Cn1cc2c(n1)N(Cc1ccccc1C(F)(F)F)C(=O)N(C1CCN(c3c(C)cccc3F)CC1)C2` [Example 124], the pIC50 was 7.89.

With `COc1nccc(C(F)F)c1N1CCC(N2C(=O)N(Cc3ccccc3C3CC3)c3nn(C4CC4)cc3C2C)CC1` (single isomer, unassigned) [Example 382], the negative logarithm of the IC50 (pIC50) was 7.68.

For `Cc1cccc(F)c1N1CCC(N2Cc3cn(CC4(O)COC4)nc3N(Cc3ccccc3C(F)(F)F)C2=O)CC1` [Example 171], the pIC50 is 7.77.

On to `CC(=O)NCCn1cc2c(n1)N(Cc1ccccc1C(F)(F)F)C(=O)N(C1CCN(c3c(C)cccc3F)CC1)C2` [Example 66], for which the negative-log IC50 (pIC50) is 6.82.

On to `Cc1nn(C)c(N2CCC(N3Cc4cn(C)nc4N(Cc4ccccc4C(F)(F)F)C3=O)CC2)c1C#N` [Example 229], for which the negative logarithm of the IC50 (pIC50) was 6.26.

For the molecule `Cc1cccc(C)c1N1CCC(N2Cc3cn(C)nc3N(Cc3ccccc3C(F)(F)F)C2=O)C1` (single isomer, unassigned) [Example 58], the pIC50 was 6.62.

Turning to `Cc1cccc(F)c1N1CCC(N2Cc3cn(CC(C)(C)N)nc3N(Cc3ccccc3C(F)(F)F)C2=O)CC1` [Example 118], the negative logarithm of the IC50 (pIC50) was 6.24.

Consider `Cc1cccc(F)c1N1CCC(N2Cc3nn(CC4(F)CC4)cc3N(Cc3ccccc3C(F)(F)F)C2=O)CC1` [Example 184], for which the pIC50 was 8.05.

For the molecule `Cc1cccc(F)c1N1CCC(N2Cc3cn(C(C)C(F)F)nc3N(Cc3ccccc3C(F)(F)F)C2=O)CC1` (single isomer, unassigned) [Example 187], the pIC50 was 7.89.

As for `CC1c2cn(C)nc2N(Cc2ccccc2C(F)(F)F)C(=O)N1C1CCN(c2c(F)cccc2C(F)F)CC1` (single isomer, unassigned) [Example 315], the negative logarithm of the IC50 (pIC50) is 6.44.

For `Cc1cccc(F)c1N1CCC(N2Cc3cn(C4CN(C(=O)N(C)C)C4)nc3N(Cc3ccccc3C(F)(F)F)C2=O)CC1` [Example 119], the pIC50 was 6.53.

For `CCN1CC(n2cc3c(n2)N(Cc2ccccc2C(F)(F)F)C(=O)N(C2CCN(c4c(C)cccc4F)CC2)C3)C1` [Example 103], the pIC50 was 6.45.

Turning to `Cc1cccc(F)c1N1CCC(N2Cc3cn(C)nc3N(Cc3c(F)cc(F)cc3OC(C)C)C2=O)CC1` [Example 236], the negative-log IC50 (pIC50) was 6.51.

For the molecule `Cc1cccc(F)c1N1CCC(N2C(=O)N(Cc3ccccc3C(F)(F)F)c3cn(C4CC4)nc3C2C)CC1` (single isomer, unassigned) [Example 266], the pIC50 was 6.45.

Take `CCOC(=O)N1CC(n2cc3c(n2)N(Cc2ccccc2C(F)(F)F)C(=O)N(C2CCN(c4c(C)cccc4F)CC2)C3)C1` [Example 126]: the negative logarithm of the IC50 (pIC50) is 7.82.

With `Cc1cccc(F)c1N1CCC(N2C(=O)N(Cc3ccccc3C(F)(F)F)c3cn(C4CC4)nc3C2C)CC1` (single isomer, unassigned) [Example 265], the pIC50 is 7.92.

Consider `Cc1cccc(F)c1N1CCC(N2C(=O)N(Cc3ccccc3C(F)(F)F)c3n[nH]cc3C2C)CC1` (single isomer, unassigned) [Example 316], for which the pIC50 is 8.05.

For `Cc1cccc(F)c1N1CCC(N2Cc3cn(C4CCCCC4[N+](=O)[O-])nc3N(Cc3ccccc3C(F)(F)F)C2=O)CC1` (stereo not shown) [Example 82], the negative logarithm of the IC50 (pIC50) is 6.92.

For `C=C(C)n1cc2c(n1)CN(C1CCN(c3c(C)cccc3F)CC1)C(=O)N2Cc1ccccc1C(F)(F)F` [Example 192], the pIC50 was 8.40.

For `COc1nccc(C(F)F)c1N1CCC(N2C(=O)N(Cc3ccccc3C3CC3)c3nn(C4CC4)cc3C2C)CC1` (single isomer, unassigned) [Example 383], the pIC50 was 6.69.

As to `Cc1cccc(F)c1N1CCC(N2Cc3cn(CCN(C)C(C)C)nc3N(Cc3ccccc3C(F)(F)F)C2=O)CC1` [Example 72], the pIC50 was 7.37.

For the molecule `Cc1cccc(F)c1N1CCCC(N2Cc3cn(C)nc3N(Cc3ccccc3C(F)(F)F)C2=O)CC1` (single isomer, unassigned) [Example 225], the pIC50 was 7.47.

Turning to `Cc1cccc(F)c1N1CCC(N2Cc3nn(C)cc3N(Cc3ccccc3C3CC3)C2=O)CC1` [Example 259], the negative-log IC50 (pIC50) is 7.31.

With `Cc1cccc(F)c1N1CCC(N2Cc3cn(CC(N)=O)nc3N(Cc3ccccc3C(F)(F)F)C2=O)CC1` [Example 29], the pIC50 was 6.99.

Regarding `Cc1cccc(F)c1N1CCC(N2C(=O)N(Cc3ccccc3C3CC3)c3cn(CC(C)(F)F)nc3C2C)CC1` (single isomer, unassigned) [Example 276], the pIC50 is 6.31.

For `Cc1cccc(F)c1N1CC[C@@H](N2Cc3cn(C)nc3N(Cc3ccccc3C(F)(F)F)C2=O)C1` [Example 55], the pIC50 is 7.96.

As for `Cn1cc2c(n1)N(Cc1ccccc1C(F)(F)F)C(=O)N(C1CCN(c3c(F)cccc3C(F)(F)F)CC1)C2` [Example 243], the negative-log IC50 (pIC50) was 7.55.

For `Cc1cccc(F)c1N1CCC(N2Cc3nn(C)nc3N(Cc3ccccc3C(F)(F)F)C2=O)CC1` [Example 81], the negative-log IC50 (pIC50) was 7.68.

In the case of `COc1nccc(C)c1N1CCC(N2C(=O)N(Cc3ccccc3C(F)(F)F)c3cn(C4CC4)nc3C2C)CC1` (single isomer, unassigned) [Example 296], the pIC50 is 7.82.

Turning to `CC1c2c[nH]nc2N(Cc2ccccc2C2CC2)C(=O)N1C1CCN(c2c(F)cccc2Cl)CC1` (single isomer, unassigned) [Example 373], the pIC50 was 6.00.

`Cc1cccc(F)c1N1CCC(N2Cc3cn(C)nc3N(Cc3ccccc3C(C)C)C2=O)CC1` [Example 231]: the negative logarithm of the IC50 (pIC50) was 7.77.

`CC1c2c[nH]nc2N(Cc2ccccc2C(F)(F)F)C(=O)N1C1CCN(c2c(F)cccc2Cl)CC1` (single isomer, unassigned) [Example 351]: the pIC50 was 6.11.

On to `Cc1cccc(F)c1N1CCC(N2Cc3cn(CC(C)C)nc3N(Cc3ccccc3C(F)(F)F)C2=O)CC1` [Example 155], for which the pIC50 is 7.60.

Turning to `Cc1cccc(F)c1N1CCC(N2Cc3nn(CC(C)(C)F)cc3N(Cc3ccccc3C(F)(F)F)C2=O)CC1` [Example 176], the negative-log IC50 (pIC50) was 7.80.

For the molecule `Cc1cccc(F)c1N1CCC(N2Cc3cn(C(C)C#N)nc3N(Cc3ccccc3C(F)(F)F)C2=O)CC1` (stereo not shown) [Example 78], the negative-log IC50 (pIC50) was 7.85.

`Cc1cccc(F)c1N1CCC(N2Cc3c(cnn3CC(C)(C)F)N(Cc3ccccc3C(F)(F)F)C2=O)CC1` [Example 177]: the pIC50 is 7.32.
